Assay results as given in article PMC4710522, “A Novel Triazolopyridine-Based Spleen Tyrosine Kinase Inhibitor That Arrests Joint Inflammation” (PLoS ONE, 2016).

How the values were obtained:
Assay in all cases: SelectScreen kinase assay
Assay type in all cases: biochemical
Pim-1_h = target: T1, Pim-1_h (Homo sapiens, UniProt P11309); conditions: KM ATP, read-out: % control
T1 construct: purchased Life Technologies (Invitrogen) SelectScreen, Z'-LYTE / Adapta
Outline: (§1)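 Each enzyme is assayed by Z'-Lyte or Adapta with the compound at a constant 3 µM. ATP is used at that enzyme's KM or at 10 or 100 µM. Activity is expressed relative to DMSO-only controls.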

CLK1_h = target: T2, CLK1_h (Homo sapiens, UniProt P49759); conditions: KM ATP, read-out: % control
T2 construct: purchased Life Technologies (Invitrogen) SelectScreen, Z'-LYTE / Adapta
Outline: as §1

PKB-alpha_h = target: T3, PKB-alpha_h (Homo sapiens, UniProt P31749); conditions: KM ATP, read-out: % control
T3 construct: purchased Life Technologies (Invitrogen) SelectScreen, Z'-LYTE / Adapta
Outline: as §1

IR_h = target: T4, IR_h (Homo sapiens, UniProt P06213); conditions: KM ATP, read-out: % control
T4 construct: purchased Life Technologies (Invitrogen) SelectScreen, Z'-LYTE / Adapta
Outline: as §1

JNK2-alpha2_h = target: T5, JNK2-alpha2_h (Homo sapiens, UniProt P45984); conditions: 100 µM ATP, read-out: % control
T5 construct: purchased Life Technologies (Invitrogen) SelectScreen, Z'-LYTE / Adapta
Outline: as §1

CDK5_p35_h = target: T6, CDK5_p35_h (Homo sapiens, UniProt Q00535); conditions: KM ATP, read-out: % control
T6 construct: purchased Life Technologies (Invitrogen) SelectScreen, Z'-LYTE / Adapta
Outline: as §1

SRPK2_h = target: T7, SRPK2_h (Homo sapiens, UniProt P78362); conditions: KM ATP, read-out: % control
T7 construct: purchased Life Technologies (Invitrogen) SelectScreen, Z'-LYTE / Adapta
Outline: as §1

DAPK1_h = target: T8, DAPK1_h (Homo sapiens, UniProt P53355); conditions: KM ATP, read-out: % control
T8 construct: purchased Life Technologies (Invitrogen) SelectScreen, Z'-LYTE / Adapta
Outline: as §1

MST3_h = target: T9, MST3_h (Homo sapiens, UniProt Q9Y6E0); conditions: KM ATP, read-out: % control
T9 construct: purchased Life Technologies (Invitrogen) SelectScreen, Z'-LYTE / Adapta
Outline: as §1

CHK2_h = target: T10, CHK2_h (Homo sapiens, UniProt O96017); conditions: KM ATP, read-out: % control
T10 construct: purchased Life Technologies (Invitrogen) SelectScreen, Z'-LYTE / Adapta
Outline: as §1

cKit_h = cKit_h (Homo sapiens, UniProt P10721)
Outline: as §1

ALK_h = target: T11, ALK_h (Homo sapiens, UniProt Q9UM73); conditions: KM ATP, read-out: % control
T11 construct: purchased Life Technologies (Invitrogen) SelectScreen, Z'-LYTE / Adapta
Outline: as §1

ROCK-II_h = target: T12, ROCK-II_h (Homo sapiens, UniProt O75116); conditions: KM ATP, read-out: % control
T12 construct: purchased Life Technologies (Invitrogen) SelectScreen, Z'-LYTE / Adapta
Outline: as §1

Hck_h = target: T13, Hck_h (Homo sapiens, UniProt P08631); conditions: KM ATP, read-out: % control
T13 construct: purchased Life Technologies (Invitrogen) SelectScreen, Z'-LYTE / Adapta
Outline: as §1

Rsk3_h = target: T14, Rsk3_h (Homo sapiens, UniProt Q15349); conditions: KM ATP, read-out: % control
T14 construct: purchased Life Technologies (Invitrogen) SelectScreen, Z'-LYTE / Adapta
Outline: as §1

EGFR_T790M_L858R_h = target: T15, EGFR_T790M_L858R_h (Homo sapiens, UniProt P00533, L858R/T790M); conditions: KM ATP, read-out: % control
T15 construct: purchased Life Technologies (Invitrogen) SelectScreen, Z'-LYTE / Adapta
Outline: as §1

Ret_h = Ret_h (Homo sapiens, UniProt P07949)
Outline: as §1

EphB1_h = target: T16, EphB1_h (Homo sapiens, UniProt P54762); conditions: KM ATP, read-out: % control
T16 construct: purchased Life Technologies (Invitrogen) SelectScreen, Z'-LYTE / Adapta
Outline: as §1

Itk_h = target: T17, Itk_h (Homo sapiens, UniProt Q08881); conditions: KM ATP, read-out: % control
T17 construct: purchased Life Technologies (Invitrogen) SelectScreen, Z'-LYTE / Adapta
Outline: as §1

JNK1-alpha1_h = target: T18, JNK1-alpha1_h (Homo sapiens, UniProt P45983); conditions: 100 µM ATP, read-out: % control
T18 construct: purchased Life Technologies (Invitrogen) SelectScreen, Z'-LYTE / Adapta
Outline: as §1

FAK_h = target: T19, FAK_h (Homo sapiens, UniProt Q05397); conditions: KM ATP, read-out: % control
T19 construct: purchased Life Technologies (Invitrogen) SelectScreen, Z'-LYTE / Adapta
Outline: as §1

Axl_h = target: T20, Axl_h (Homo sapiens, UniProt P30530); conditions: KM ATP, read-out: % control
T20 construct: purchased Life Technologies (Invitrogen) SelectScreen, Z'-LYTE / Adapta
Outline: as §1

Flt1_h = target: T21, Flt1_h (Homo sapiens, UniProt P17948); conditions: KM ATP, read-out: % control
T21 construct: purchased Life Technologies (Invitrogen) SelectScreen, Z'-LYTE / Adapta
Outline: as §1

TBK1_h = target: T22, TBK1_h (Homo sapiens, UniProt Q9UHD2); conditions: KM ATP, read-out: % control
T22 construct: purchased Life Technologies (Invitrogen) SelectScreen, Z'-LYTE / Adapta
Outline: as §1

AMPK_A2_B1_G1_h = target: T23, AMPK_A2_B1_G1_h (Homo sapiens, UniProt P54646); conditions: KM ATP, read-out: % control
T23 construct: purchased Life Technologies (Invitrogen) SelectScreen, Z'-LYTE / Adapta
Outline: as §1

Abl_h = target: T24, Abl_h (Homo sapiens, UniProt P00519); conditions: KM ATP, read-out: % control
T24 construct: purchased Life Technologies (Invitrogen) SelectScreen, Z'-LYTE / Adapta
Outline: as §1

MARK3_h = target: T25, MARK3_h (Homo sapiens, UniProt P27448); conditions: KM ATP, read-out: % control
T25 construct: purchased Life Technologies (Invitrogen) SelectScreen, Z'-LYTE / Adapta
Outline: as §1

FGFR3_K650E_h = target: T26, FGFR3_K650E_h (Homo sapiens, UniProt P22607, K650E); conditions: KM ATP, read-out: % control
T26 construct: purchased Life Technologies (Invitrogen) SelectScreen, Z'-LYTE / Adapta
Outline: as §1

TAO1_h = target: T27, TAO1_h (Homo sapiens, UniProt Q9UL54); conditions: KM ATP, read-out: % control
T27 construct: purchased Life Technologies (Invitrogen) SelectScreen, Z'-LYTE / Adapta
Outline: as §1

TrkA_h = target: T28, TrkA_h (Homo sapiens, UniProt P04629); conditions: KM ATP, read-out: % control
T28 construct: purchased Life Technologies (Invitrogen) SelectScreen, Z'-LYTE / Adapta
Outline: as §1

MSK1_h = target: T29, MSK1_h (Homo sapiens, UniProt O75582); conditions: KM ATP, read-out: % control
T29 construct: purchased Life Technologies (Invitrogen) SelectScreen, Z'-LYTE / Adapta
Outline: as §1

Yes_h = target: T30, Yes_h (Homo sapiens, UniProt P07947); conditions: KM ATP, read-out: % control
T30 construct: purchased Life Technologies (Invitrogen) SelectScreen, Z'-LYTE / Adapta
Outline: as §1

TrkB_h = target: T31, TrkB_h (Homo sapiens, UniProt Q16620); conditions: KM ATP, read-out: % control
T31 construct: purchased Life Technologies (Invitrogen) SelectScreen, Z'-LYTE / Adapta
Outline: as §1

EphA2_h = target: T32, EphA2_h (Homo sapiens, UniProt P29317); conditions: KM ATP, read-out: % control
T32 construct: purchased Life Technologies (Invitrogen) SelectScreen, Z'-LYTE / Adapta
Outline: as §1

[1] = 3 µM, KM ATP, read-out: % control
[2] = 10-point dose-response, commercial vendor

Chain of cKit_h (P10721 26-976): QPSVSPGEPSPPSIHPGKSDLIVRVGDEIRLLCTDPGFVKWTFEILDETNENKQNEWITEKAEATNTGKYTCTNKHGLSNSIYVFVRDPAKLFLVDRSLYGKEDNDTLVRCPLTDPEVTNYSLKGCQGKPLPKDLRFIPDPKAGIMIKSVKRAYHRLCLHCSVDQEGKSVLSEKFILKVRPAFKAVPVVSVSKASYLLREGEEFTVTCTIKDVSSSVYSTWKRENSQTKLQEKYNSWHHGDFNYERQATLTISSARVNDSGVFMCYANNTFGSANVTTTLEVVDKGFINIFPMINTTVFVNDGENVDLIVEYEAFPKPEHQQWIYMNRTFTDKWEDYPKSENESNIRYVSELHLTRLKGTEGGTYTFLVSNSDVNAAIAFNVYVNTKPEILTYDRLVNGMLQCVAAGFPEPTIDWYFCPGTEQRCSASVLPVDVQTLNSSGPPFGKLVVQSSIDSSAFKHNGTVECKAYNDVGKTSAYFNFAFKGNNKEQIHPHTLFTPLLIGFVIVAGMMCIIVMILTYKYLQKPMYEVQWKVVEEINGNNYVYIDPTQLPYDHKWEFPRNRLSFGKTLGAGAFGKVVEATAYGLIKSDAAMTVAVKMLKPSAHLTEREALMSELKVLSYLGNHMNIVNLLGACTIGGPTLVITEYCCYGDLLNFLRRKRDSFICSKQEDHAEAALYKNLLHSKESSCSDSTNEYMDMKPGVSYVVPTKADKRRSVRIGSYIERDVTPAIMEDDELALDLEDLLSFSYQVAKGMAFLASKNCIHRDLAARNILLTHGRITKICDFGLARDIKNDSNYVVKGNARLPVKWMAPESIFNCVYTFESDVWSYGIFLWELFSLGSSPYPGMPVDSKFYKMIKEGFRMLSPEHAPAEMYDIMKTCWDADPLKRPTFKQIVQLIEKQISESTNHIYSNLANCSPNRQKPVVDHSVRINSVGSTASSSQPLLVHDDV
Chain of Ret_h (P07949 29-1114): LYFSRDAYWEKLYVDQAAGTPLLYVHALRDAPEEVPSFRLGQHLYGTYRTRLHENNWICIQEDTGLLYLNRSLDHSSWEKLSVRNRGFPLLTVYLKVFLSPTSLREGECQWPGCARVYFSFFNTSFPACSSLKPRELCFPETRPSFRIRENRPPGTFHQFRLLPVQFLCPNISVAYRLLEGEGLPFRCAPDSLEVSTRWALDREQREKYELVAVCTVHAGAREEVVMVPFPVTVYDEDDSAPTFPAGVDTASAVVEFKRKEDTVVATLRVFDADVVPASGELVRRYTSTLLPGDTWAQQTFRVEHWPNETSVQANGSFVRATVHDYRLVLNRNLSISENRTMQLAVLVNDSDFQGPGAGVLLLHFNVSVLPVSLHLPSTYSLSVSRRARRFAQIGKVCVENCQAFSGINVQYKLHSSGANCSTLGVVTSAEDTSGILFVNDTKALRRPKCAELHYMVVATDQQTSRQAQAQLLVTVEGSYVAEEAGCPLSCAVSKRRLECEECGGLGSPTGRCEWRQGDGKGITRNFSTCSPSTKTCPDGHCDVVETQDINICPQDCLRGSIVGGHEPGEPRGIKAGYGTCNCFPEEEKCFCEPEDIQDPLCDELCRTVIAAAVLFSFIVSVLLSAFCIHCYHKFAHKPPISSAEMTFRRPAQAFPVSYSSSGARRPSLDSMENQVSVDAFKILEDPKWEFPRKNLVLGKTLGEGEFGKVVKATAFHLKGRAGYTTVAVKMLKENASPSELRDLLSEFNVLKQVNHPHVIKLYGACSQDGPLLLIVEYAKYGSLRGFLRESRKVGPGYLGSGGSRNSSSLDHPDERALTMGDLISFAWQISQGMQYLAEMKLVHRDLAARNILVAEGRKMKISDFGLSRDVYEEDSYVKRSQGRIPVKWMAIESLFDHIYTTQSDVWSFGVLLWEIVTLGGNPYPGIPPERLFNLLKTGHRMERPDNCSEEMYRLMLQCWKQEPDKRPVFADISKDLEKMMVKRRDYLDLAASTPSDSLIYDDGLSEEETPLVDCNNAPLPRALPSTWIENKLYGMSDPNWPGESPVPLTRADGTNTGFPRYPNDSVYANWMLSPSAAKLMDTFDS
T28 sequence (P04629 33-796): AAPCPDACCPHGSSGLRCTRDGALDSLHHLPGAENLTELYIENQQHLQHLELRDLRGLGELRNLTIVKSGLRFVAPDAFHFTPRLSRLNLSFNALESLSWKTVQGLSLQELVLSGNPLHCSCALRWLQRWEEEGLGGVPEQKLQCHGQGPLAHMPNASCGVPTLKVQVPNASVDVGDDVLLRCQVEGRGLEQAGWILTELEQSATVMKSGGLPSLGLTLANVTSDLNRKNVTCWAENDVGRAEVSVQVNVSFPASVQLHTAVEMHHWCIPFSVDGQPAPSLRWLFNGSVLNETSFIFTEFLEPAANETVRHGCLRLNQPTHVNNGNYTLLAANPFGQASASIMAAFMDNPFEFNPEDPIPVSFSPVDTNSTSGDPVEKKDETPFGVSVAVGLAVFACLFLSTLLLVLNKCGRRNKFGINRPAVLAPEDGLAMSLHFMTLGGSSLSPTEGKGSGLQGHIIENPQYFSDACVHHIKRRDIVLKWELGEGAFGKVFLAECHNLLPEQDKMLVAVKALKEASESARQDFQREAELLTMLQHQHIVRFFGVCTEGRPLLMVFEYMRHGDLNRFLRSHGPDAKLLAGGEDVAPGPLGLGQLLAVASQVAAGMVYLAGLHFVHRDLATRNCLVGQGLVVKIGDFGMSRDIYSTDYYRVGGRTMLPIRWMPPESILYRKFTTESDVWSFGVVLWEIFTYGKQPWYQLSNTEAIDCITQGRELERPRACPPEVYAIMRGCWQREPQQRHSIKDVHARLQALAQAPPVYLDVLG
T22 sequence (Q9UHD2 whole entry): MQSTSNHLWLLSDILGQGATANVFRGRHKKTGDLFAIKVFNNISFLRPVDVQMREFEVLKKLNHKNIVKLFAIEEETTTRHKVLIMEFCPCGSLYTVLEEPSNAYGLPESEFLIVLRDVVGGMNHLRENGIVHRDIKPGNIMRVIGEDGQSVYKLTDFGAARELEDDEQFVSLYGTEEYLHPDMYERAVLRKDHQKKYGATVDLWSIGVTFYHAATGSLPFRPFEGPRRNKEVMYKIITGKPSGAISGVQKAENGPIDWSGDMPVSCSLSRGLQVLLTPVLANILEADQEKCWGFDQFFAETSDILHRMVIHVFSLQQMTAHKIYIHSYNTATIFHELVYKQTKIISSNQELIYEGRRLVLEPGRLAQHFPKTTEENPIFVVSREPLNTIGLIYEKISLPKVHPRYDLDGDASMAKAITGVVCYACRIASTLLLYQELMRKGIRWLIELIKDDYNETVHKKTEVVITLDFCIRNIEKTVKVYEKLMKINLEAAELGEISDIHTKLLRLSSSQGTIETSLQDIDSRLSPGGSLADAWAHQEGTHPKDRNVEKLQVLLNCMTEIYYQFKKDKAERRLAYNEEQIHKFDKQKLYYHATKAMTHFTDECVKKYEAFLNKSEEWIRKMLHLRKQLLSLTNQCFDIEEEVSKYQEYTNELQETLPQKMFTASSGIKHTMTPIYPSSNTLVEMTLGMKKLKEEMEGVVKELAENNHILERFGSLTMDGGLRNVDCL
T2 sequence (P49759 whole entry): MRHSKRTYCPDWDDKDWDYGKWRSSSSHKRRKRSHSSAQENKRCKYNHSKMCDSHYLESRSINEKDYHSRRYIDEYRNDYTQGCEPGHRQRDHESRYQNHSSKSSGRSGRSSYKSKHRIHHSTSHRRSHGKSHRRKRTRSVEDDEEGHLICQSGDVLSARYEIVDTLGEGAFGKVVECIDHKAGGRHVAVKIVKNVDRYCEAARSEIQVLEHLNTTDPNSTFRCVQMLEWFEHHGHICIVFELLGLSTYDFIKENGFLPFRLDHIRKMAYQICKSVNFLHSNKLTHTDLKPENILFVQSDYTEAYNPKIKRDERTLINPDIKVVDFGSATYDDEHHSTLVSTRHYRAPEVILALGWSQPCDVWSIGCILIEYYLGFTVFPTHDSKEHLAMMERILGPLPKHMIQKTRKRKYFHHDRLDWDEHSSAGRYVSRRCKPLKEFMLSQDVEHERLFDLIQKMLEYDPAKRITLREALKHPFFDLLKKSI
T30 sequence (P07947 whole entry): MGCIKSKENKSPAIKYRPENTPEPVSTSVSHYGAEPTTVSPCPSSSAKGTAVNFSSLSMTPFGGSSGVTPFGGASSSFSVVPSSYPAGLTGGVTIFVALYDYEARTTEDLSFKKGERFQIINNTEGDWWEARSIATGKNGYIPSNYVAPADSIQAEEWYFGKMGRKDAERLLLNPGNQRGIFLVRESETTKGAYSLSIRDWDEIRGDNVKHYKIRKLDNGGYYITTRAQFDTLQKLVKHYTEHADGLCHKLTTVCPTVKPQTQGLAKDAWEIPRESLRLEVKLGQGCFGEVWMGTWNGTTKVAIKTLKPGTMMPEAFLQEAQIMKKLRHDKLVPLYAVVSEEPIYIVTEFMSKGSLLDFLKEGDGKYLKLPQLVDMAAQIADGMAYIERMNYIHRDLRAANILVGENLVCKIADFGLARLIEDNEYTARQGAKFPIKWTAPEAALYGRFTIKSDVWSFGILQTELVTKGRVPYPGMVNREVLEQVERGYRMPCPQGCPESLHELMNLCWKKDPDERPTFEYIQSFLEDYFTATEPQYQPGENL
T1 sequence (P11309 whole entry): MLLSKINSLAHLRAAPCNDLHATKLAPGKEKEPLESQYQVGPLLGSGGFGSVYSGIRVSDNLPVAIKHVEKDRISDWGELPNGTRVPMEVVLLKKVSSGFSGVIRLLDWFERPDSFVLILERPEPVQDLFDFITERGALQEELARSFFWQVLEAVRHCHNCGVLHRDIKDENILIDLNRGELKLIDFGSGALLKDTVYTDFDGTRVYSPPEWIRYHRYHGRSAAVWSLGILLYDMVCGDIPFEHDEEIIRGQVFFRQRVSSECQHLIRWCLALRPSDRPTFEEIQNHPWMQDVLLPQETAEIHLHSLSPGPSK

Molecule c1cc(CC2CCOCC2)n2nc(Nc3ccc4c(NC5CCOCC5)n[nH]c4c3)nc2c1 [CC-509, [3-(2H-3,4,5,6-tetrahydropyran-4-ylamino)(1H-indazol-6-yl)][5-(2H-3,4,5,6-tetrahydropyran-4-ylmethyl)(2H-1,2,4-triazolo[1,5-a]pyridin-2-yl)]amine] has a remaining activity at 3 µM (Pim-1_h) of 101%, a remaining activity at 3 µM (CLK1_h) of 82% and a remaining activity at 3 µM (PKB-alpha_h) of 100%. For the same molecule, the remaining activity at 3 µM (IR_h) was 91%, the remaining activity at 3 µM (JNK2-alpha2_h) was 88% and the remaining activity at 3 µM (CDK5_p35_h) was 77%. For the same molecule, the remaining activity at 3 µM (SRPK2_h) was 111%, the remaining activity at 3 µM (DAPK1_h) was 104% and the remaining activity at 3 µM (MST3_h) was 107%. It also gave a remaining activity at 3 µM (CHK2_h) of 97%, a remaining activity at 3 µM (cKit_h; [1]) of 66% and an IC50 (cKit_h; [2]) of 11 µM. For the same molecule, the remaining activity at 3 µM (ALK_h) was 45%, the remaining activity at 3 µM (ROCK-II_h) was 69% and the remaining activity at 3 µM (Hck_h) was 71%. The remaining activity at 3 µM (Rsk3_h) was 33%, the remaining activity at 3 µM (EGFR_T790M_L858R_h) was 52% and the remaining activity at 3 µM (Ret_h; [1]) was 13%. It also gave an IC50 (Ret_h; [2]) of 0.397 µM, a remaining activity at 3 µM (EphB1_h) of 41% and a remaining activity at 3 µM (Itk_h) of 91%. The remaining activity at 3 µM (JNK1-alpha1_h) was 88%, the remaining activity at 3 µM (FAK_h) was 43% and the remaining activity at 3 µM (Axl_h) was 70%. It also gave a remaining activity at 3 µM (Flt1_h) of 55%, a remaining activity at 3 µM (TBK1_h) of 10% and a remaining activity at 3 µM (AMPK_A2_B1_G1_h) of 63%. The remaining activity at 3 µM (Abl_h) was 19%, the remaining activity at 3 µM (MARK3_h) was 42% and the remaining activity at 3 µM (FGFR3_K650E_h) was 54%. For the same molecule, the remaining activity at 3 µM (TAO1_h) was 96%, the remaining activity at 3 µM (TrkA_h) was 41% and the remaining activity at 3 µM (MSK1_h) was 94%. The remaining activity at 3 µM (Yes_h) was 54%, the remaining activity at 3 µM (TrkB_h) was 34% and the remaining activity at 3 µM (EphA2_h) was 82%.
